According to ChEMBL document CHEMBL5543108, “Structure-based design and synthesis of BML284 derivatives: A novel class of colchicine-site noncovalent tubulin degradation agents” (Eur J Med Chem, 2024):

Key:
[1] = test system: A2780/Taxol; assay: Antiproliferative activity against human A2780T cells assessed as reduction in cell viability measured after 72 hrs; format: functional, cell-based
[2] = test system: A2780S; assay: Antitumor activity against human A2780S cells xenografted in mouse model assessed as tumor growth inhibition at 30 mg/kg, ip administered every two days for 12 days relative to control; format: functional; details: 288 h, time 12 day, read-out: TGI
[3] = test system: MOLM-13; assay: Antiproliferative activity against human MOLM-13 cells assessed as reduction in cell viability measured after 72 hrs; format: functional, cell-based; details: MOLM-13, 72 h
[4] = test system: MCF7; assay: cells; details: Homo sapiens, MCF7, 72 h
Description: Antiproliferative activity against human MCF7 cells assessed as reduction in cell viability measured after 72 hrs

[5] = test system: K562; assay: Antiproliferative activity against human K562 cells assessed as reduction in cell viability measured after 72 hrs; format: functional, cell-based; details: K562, 72 h
[6] = test system: A2780/Taxol; assay: Antitumor activity against human A2780T cells xenografted in mouse model assessed as tumor growth inhibition at 30 mg/kg, ip administered every two days for 18 days relative to control; format: functional; details: 432 h, time 18 day, read-out: TGI
[7] = test system: A549/TR; assay: Antiproliferative activity against paclitaxel resistant human A549T cells assessed as reduction in cell viability measured after 72 hrs; format: functional, cell-based

IC50 [1]: 55900 nM | IC50 [3]: 4 nM | IC50 [4]: 31.5 nM | IC50 [5]: 15 nM | IC50 [7]: 834 nM
Structure (SMILES): CC(=O)O[C@H]1C(=O)[C@@]2(C)[C@H]([C@H](OC(=O)c3ccccc3)[C@]3(O)C[C@H](OC(=O)[C@H](O)[C@@H](NC(=O)c4ccccc4)c4ccccc4)C(C)=C1C3(C)C)[C@]1(OC(C)=O)CO[C@@H]1C[C@@H]2O [PACLITAXEL]
inhibition in vivo at 30 mg/kg [2]: 74.6% | inhibition in vivo at 30 mg/kg [6]: 23.2%
